This is an account of results in paper PMC9959130, “Effects of Side Chain and Peptide Bond Modifications on the Targeting Properties of Stabilized Minigastrin Analogs” (Pharmaceuticals, 2023).

Structures are written as SMILES. Where two headings read alike, the source gives them in different places.

What is called EC50 is the concentration needed to bring the measured effect to its halfway point.

For one series, the target named is T1, human CCK2R (Homo sapiens, UniProt P32239).
T1 construct: expressed in transfected cells; host or cells: A431 human epidermoid carcinoma cells, stably transfected (A431-CCK2R); originally provided by Dr. Luigi Aloj
T1 sequence (P32239 1-447): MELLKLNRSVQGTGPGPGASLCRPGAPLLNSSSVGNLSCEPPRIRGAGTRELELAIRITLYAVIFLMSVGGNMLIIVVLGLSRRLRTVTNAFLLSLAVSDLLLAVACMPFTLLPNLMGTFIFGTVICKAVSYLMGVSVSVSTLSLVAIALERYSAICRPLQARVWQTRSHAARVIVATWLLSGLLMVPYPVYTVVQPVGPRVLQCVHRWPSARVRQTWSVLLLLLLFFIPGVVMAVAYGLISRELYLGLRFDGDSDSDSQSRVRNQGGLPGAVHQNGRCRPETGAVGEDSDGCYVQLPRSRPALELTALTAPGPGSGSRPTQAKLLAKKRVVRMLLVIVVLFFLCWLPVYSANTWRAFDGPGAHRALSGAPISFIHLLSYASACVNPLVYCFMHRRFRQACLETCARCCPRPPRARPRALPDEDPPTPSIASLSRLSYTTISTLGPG
The experiment in a line: Calcium mobilization assay (fluo-4 AM) on A431-CCK2R cells. Type of series: cell-based. The settings on record: normalized to 10^−6 M pentagastrin, mean ± SEM of at least three independent experiments in triplicates. An excerpt: A431 human epidermoid carcinoma cells overexpressing human CCK2R through stable transfection (A431-CCK2R) and the same cell line transfected with the empty vector (A431-mock) were used for cell assays. The cells are constantly available in our laboratory and were originally provided by Dr. Luigi Aloj. All cell culture media and reagents were obtained from Invitrogen Corporation (Lofer, Austria) or Sigma-Aldrich (Darmstadt, Germany). Dulbecco’s modified Eagle’s medium (DMEM) supplemented with 10% (v/v) fetal bovine serum and 1% of 100x penicillin−streptomycin−glutamine was used for cell culture. The cells were passaged three times per week using a 10x 2.5% trypsin-EDTA solution in a 1:2–1:3 ratio.
Analog-induced receptor activation was evaluated by a calcium mobilization assay using the calcium-sensitive dye fluo-4 AM (ThermoFisher Scientific, Montigny-Le-Bretonneux, France), as previously described. Briefly, A431-CCK2R cells were seeded (60,000/well) in flat clear bottom black 96-well plates (Corning, Bagneaux-sur-Loing, France) coated with poly-L-ornithine (100 µg/mL, 1 h, 37 °C) (Sigma Aldrich, Saint Quentin Fallavier, France). Cytosolic Ca^2+ variations were measured before and after application of 50 µL of graded concentrations of the investigated peptides in the vicinity of the cells, and the effects on Ca^2+ mobilization were measured. Data were background corrected and normalized for the amplitudes caused by the medium alone (0%, no self-effect) or 10^−6 M pentagastrin (100%, maximal Ca^2+ mobilization response). Prism 4.0 software was used to calculate the EC50 values and the results were expressed as mean ± SEM for at least three independent experiments performed in triplicates.
In general terms: A change in cytosolic calcium serves as a functional read-out for many receptors and channels.

For series [1] the following is noted: cited from earlier work. On the procedure:
(−2.33 ± 0.23) > [^111In]In-DOTA-MGS5 (−2.0 ± 0.1) > [^111In]In-DOTA-[2Nal^8]MGS5 (−1.71 ± 0.19) > [^111In]In-DOTA-[DLys^1]MGS5 (−1.31 ± 0.11). […] For the time point of 24 h after incubation, lowest values were found for [^111In] ...

Series [2] is described as follows: Distribution coefficient (LogD) in octanol/PBS. In kind it is physicochemical. The settings on record: radiolabeled peptide (111In-labeled where the label names no radiometal); shake-flask octanol/PBS, 100 pmol/mL, 15 min shaking at 1500 rpm, γ-counter; mean ± SD, n = 8. How it is done: The distribution coefficient (LogD) in octanol/PBS was determined by mixing 0.5 mL of the radiolabeled DOTA peptides diluted in PBS (100 pmol/mL) and 0.5 mL octanol in a 1.5 mL microcentrifuge tube (n = 8). After shaking for 15 min (MS3 Basic, IKA, Staufen, Germany) at 1500 rpm and a waiting time of 10 min to ensure appropriate separation of the two phases, 100 µL aliquots of each phase were pipetted into 4.5 mL tubes. The tubes were measured using a γ-counter (2480 Wizard2 3″, PerkinElmer Life Sciences and Analytical Instruments, formerly Wallac Oy, Turku, Finland) and the LogD value was determined using following equation: LogD=Log(cpmoctanol phase/cpmPBS phase)

The next series is described as follows: Complex stability in PBS. Type of series: physicochemical. The settings on record: 1000 pmol/mL in PBS, room temperature, 4 h after incubation, n = 1. On the procedure: In vitro stability studies were performed in human serum (n = 2). The radiolabeled peptides (1000 pmol/mL) were incubated at 37 °C and a sample of 100 μL was taken at 1, 4, and 24 h after incubation. After the precipitation of proteins with ACN at 1:1.5 (v/v), centrifugation (14,000 rpm, 2 min, centrifuge 5424, Eppendorf AG, Germany) and dilution with water at 1:1 (v/v), an aliquot of 100 μL of this solution was analyzed by HPLC. Radioligand breakdown was monitored and the percentage of intact radiopeptide was calculated using Chromeleon Dionex Software (Version 7.2.9.11323). Additionally, the radiolabeled peptides (1000 pmol/mL) were incubated in PBS (n = 1) at room temperature to confirm the complex stability as a control.

Series [3] can be described thus: Biodistribution in BALB/c nude mice bearing A431-CCK2R/A431-mock xenografts. In kind it is in vivo. As to conditions: female, mouse, iv, 20 pmol, total radioactivity, 20 pmol, gallium-68, 1 h p.i., mean ± SD n = 4; for tissue uptake at 1 h: xenografted BALB/c nude mice, i.v.; for tissue to tissue ratio at 1 h: BALB/c nude mice. How it is done:
The overall biodistribution and tumor targeting properties of selected radiolabeled peptides were evaluated in female athymic BALB/c nude mice (Charles River, Sulzfeld, Germany, age of 7 to 9 weeks). After tumor induction with 2 × 10^6 A431-CCK2R or A431-mock cells (subcutaneously injected in 200 μL DMEM into the right and left flank) and a waiting period of 10–14 days (sufficient to achieve tumors of ∼0.25 g), mice were randomly divided into groups of four and treated with a bolus injection of 150 µL of the injectable solution containing the radiolabeled peptide via a lateral tail vein to achieve an injected radioactivity of 150–200 kBq and a total injected peptide amount of ~20 pmol (n = 4 for each radiopeptide). For DOTA-[(N-Me)1Nal^8]MGS5, additional biodistribution studies were performed with gallium-68 (~0.5 MBq, 20 pmol) and lutetium-177 (~0.5 MBq, 20 pmol). The animals were euthanatized by cervical dislocation at 1 h (gallium-68) or 4 h p.i. (indium-111/ lutetium-177). The tumors and other tissues (blood, lung, heart, muscle, spleen, intestine, liver, kidney, stomach, and pancreas) were dissected, weighed, and the radioactivity measured in the γ-counter. The rest of the body and a standard of the solution injected was also measured together with the collected samples. The percentage of injected activity per gram of tissue (% IA/g) and the tumor-to-organ activity ratio of selected tissues were calculated for each mouse and time point studied. Origin software (Microcal Origin 6.1, Northampton, MA, USA) was used for statistical analysis (independent t-test for two populations; significance level p < 0.05).

Turning to `CCCC[C@@H](C(=O)N[C@@H](CC(=O)O)C(=O)N[C@@H](Cc1cccc2ccccc12)C(N)=O)N(C)C(=O)[C@H](Cc1c[nH]c2ccccc12)NC(=O)CNC(=O)[C@H](Cc1ccc(O)cc1)NC(=O)[C@H](C)NC(=O)[C@@H](CCC(=O)O)NC(=O)CN1CCN(CC(=O)O)CCN(CC(=O)O)CCN(CC(=O)O)CC1` [DOTA-MGS5, DOTA-DGlu-Ala-Tyr-Gly-Trp-(N-Me)Nle-Asp-1Nal-NH2, reference compound], on human CCK2R, the EC50 stood at 7.9 ± 1.9 nM. Further, the LogD in series [1] is −2.0 ± 0.1.

As to `CCCC[C@@H](C(=O)N[C@@H](CC(=O)O)C(=O)N(C)[C@@H](Cc1cccc2ccccc12)C(N)=O)N(C)C(=O)[C@H](Cc1c[nH]c2ccccc12)NC(=O)CNC(=O)[C@H](Cc1ccc(O)cc1)NC(=O)[C@H](C)NC(=O)[C@@H](CCC(=O)O)NC(=O)CN1CCN(CC(=O)O)CCN(CC(=O)O)CCN(CC(=O)O)CC1` [[^68Ga]Ga-DOTA-[(N-Me)1Nal^8]MGS5, metal not drawn], the LogD in series [2] is −2.2 ± 0.1. In addition, in the series “Complex stability in PBS”, the “Stability of the DOTA-complex in PBS” value turned out to be 99.2%. Moreover, the tissue uptake at 1 h in series [3] (BALB/c nude, heart, read-out: Uptake in heart) was found to be 0.95 ± 0.32 %ID/g; in series [3] (BALB/c nude, intestine, read-out: Uptake in intestine) it was 0.82 ± 0.18 %ID/g; in series [3] (BALB/c nude, lung, read-out: Uptake in lung), 1.61 ± 0.42 %ID/g; in series [3] (BALB/c nude, muscle, read-out: Uptake in muscle) it was 0.45 ± 0.08 %ID/g; in series [3] (BALB/c nude, spleen, read-out: Uptake in spleen) it was 1.19 ± 0.25 %ID/g; in series [3] (athymic BALB/c nude, A431-CCK2R xenograft, read-out: Uptake in A431-CCK2R xenograft), 15.7 ± 2.21 %ID/g. Besides, the tissue uptake at 1 h in series [3] (athymic BALB/c nude, A431-mock xenograft, read-out: Uptake in A431-mock xenograft) was 1.51 ± 0.98 %ID/g; in series [3] (athymic BALB/c nude, blood, read-out: Uptake in blood) it was 2.82 ± 0.88 %ID/g; in series [3] (athymic BALB/c nude, kidneys, read-out: Uptake in kidneys) it was 7.7 ± 3.1 %ID/g; in series [3] (athymic BALB/c nude, liver, read-out: Uptake in liver) it was 2.25 ± 0.55 %ID/g; in series [3] (athymic BALB/c nude, pancreas, read-out: Uptake in pancreas) it was 0.87 ± 0.29 %ID/g; in series [3] (athymic BALB/c nude, stomach, read-out: Uptake in stomach), 1.63 ± 0.41 %ID/g. Further, the tissue to tissue ratio at 1 h worked out at 6.03 ± 2.26 in series [3] (athymic BALB/c nude, A431-CCK2R xenograft / blood, A431-CCK2R xenograft, read-out: tumor-to-organ ratio: blood); 2.36 ± 1.14 in series [3] (athymic BALB/c nude, A431-CCK2R xenograft / kidney, A431-CCK2R xenograft, read-out: tumor-to-organ ratio: kidney); 10.2 ± 3.5 in series [3] (athymic BALB/c nude, A431-CCK2R xenograft / stomach, A431-CCK2R xenograft, read-out: tumor-to-organ ratio: stomach).
